Measured values from PubChem BioAssay (NCI).
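Dose response: 5 concentrations. Exposure: 48 h. Format: 96-well plates. Endpoint: linear interpolation; highest concentration if not reached. TGI is the concentration that stops growth completely.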

How the values were obtained:
Assay in all cases: NCI tumour cell line growth inhibition, 48 h
NCI-H23 lung = system: NCI-H23 lung
RPMI-8226 leukemia = system: RPMI-8226 leukemia
SK-MEL-5 melanoma = system: SK-MEL-5 melanoma
HL-60(TB) leukemia = system: HL-60(TB) leukemia
NCI/ADR-RES ovarian = system: NCI/ADR-RES ovarian
SF-539 CNS = system: SF-539 CNS
MALME-3M melanoma = system: MALME-3M melanoma
EKVX NSCLC = system: EKVX NSCLC
HOP-62 NSCLC = system: HOP-62 NSCLC
OVCAR-5 ovarian = system: OVCAR-5 ovarian
UACC-62 melanoma = system: UACC-62 melanoma
HCT-15 colon = system: HCT-15 colon
M14 melanoma = system: M14 melanoma
NCI-H226 lung = system: NCI-H226 lung
OVCAR-8 ovarian = system: OVCAR-8 ovarian
MDA-MB-435 = system: MDA-MB-435
MDA-MB-231 breast = system: MDA-MB-231 breast
HS 578T breast = system: HS 578T breast
MDA-N = system: MDA-N
SK-OV-3 ovarian = system: SK-OV-3 ovarian
UO-31 renal = system: UO-31 renal
SR leukemia = system: SR leukemia
786-0 renal = system: 786-0 renal
SK-MEL-2 melanoma = system: SK-MEL-2 melanoma
PC-3 prostate = system: PC-3 prostate
HCT-116 colon = system: HCT-116 colon
SK-MEL-28 melanoma = system: SK-MEL-28 melanoma
ACHN renal = system: ACHN renal
TK-10 renal = system: TK-10 renal
SF-295 CNS = system: SF-295 CNS
LOX IMVI melanoma = system: LOX IMVI melanoma
MOLT-4 leukemia = system: MOLT-4 leukemia
HT29 colon = system: HT29 colon
A549 NSCLC = system: A549 NSCLC
HCC-2998 colon = system: HCC-2998 colon
RXF 393 renal = system: RXF 393 renal
K-562 leukemia = system: K-562 leukemia
HOP-92 NSCLC = system: HOP-92 NSCLC
U251 CNS = system: U251 CNS
OVCAR-3 ovarian = system: OVCAR-3 ovarian
BT-549 breast = system: BT-549 breast
SN12C renal = system: SN12C renal
COLO 205 colon = system: COLO 205 colon
A498 renal = system: A498 renal
CCRF-CEM leukemia = system: CCRF-CEM leukemia
SNB-19 CNS = system: SNB-19 CNS
CAKI-1 renal = system: CAKI-1 renal
UACC-257 melanoma = system: UACC-257 melanoma
IGROV1 ovarian = system: IGROV1 ovarian
SF-268 CNS = system: SF-268 CNS
SW-620 colon = system: SW-620 colon
DU-145 prostate = system: DU-145 prostate
SNB-75 CNS = system: SNB-75 CNS
T-47D breast = system: T-47D breast
NCI-H460 lung = system: NCI-H460 lung
NCI-H522 lung = system: NCI-H522 lung
KM12 colon = system: KM12 colon
MCF7 breast = system: MCF7 breast
OVCAR-4 ovarian = system: OVCAR-4 ovarian

`Cc1cccc(C)c1N1C(=O)C2c3[nH]c4ccccc4c3C3CCC(C(C)(C)C)CC3C2C1=O` (stereo not drawn) gave a TGI (NCI-H23 lung) of 39.8 µM, a TGI (RPMI-8226 leukemia) of over 100 µM and a TGI (SK-MEL-5 melanoma) of 28.6 µM. For the same molecule, the TGI (HL-60(TB) leukemia) was 35.5 µM, the TGI (NCI/ADR-RES ovarian) was 48.8 µM and the TGI (SF-539 CNS) was 37.5 µM. It also gave a TGI (MALME-3M melanoma) of 28.2 µM, a TGI (EKVX NSCLC) of 23.4 µM and a TGI (HOP-62 NSCLC) of 13.7 µM. It also gave a TGI (OVCAR-5 ovarian) of 55.9 µM, a TGI (UACC-62 melanoma) of 36.2 µM and a TGI (HCT-15 colon) of 24.2 µM. For the same molecule, the TGI (M14 melanoma) was 32 µM, the TGI (NCI-H226 lung) was 41 µM and the TGI (OVCAR-8 ovarian) was 37 µM. For the same molecule, the TGI (MDA-MB-435) was over 100 µM, the TGI (MDA-MB-231 breast) was 24.4 µM and the TGI (HS 578T breast) was 44 µM. It also gave a TGI (MDA-N) of 24.4 µM, a TGI (SK-OV-3 ovarian) of over 100 µM and a TGI (UO-31 renal) of 26 µM. The TGI (SR leukemia) was over 100 µM, the TGI (786-0 renal) was 20.8 µM and the TGI (SK-MEL-2 melanoma) was 33.7 µM. It also gave a TGI (PC-3 prostate) of 20.6 µM, a TGI (HCT-116 colon) of 21.3 µM and a TGI (SK-MEL-28 melanoma) of 45.5 µM. It also gave a TGI (ACHN renal) of 33.7 µM, a TGI (TK-10 renal) of 33.8 µM and a TGI (SF-295 CNS) of 51.9 µM. For the same molecule, the TGI (LOX IMVI melanoma) was 23.6 µM, the TGI (MOLT-4 leukemia) was over 100 µM and the TGI (HT29 colon) was 32 µM. The TGI (A549 NSCLC) was over 100 µM, the TGI (HCC-2998 colon) was 14.9 µM and the TGI (RXF 393 renal) was 26.3 µM. For the same molecule, the TGI (K-562 leukemia) was 32.7 µM, the TGI (HOP-92 NSCLC) was 23.9 µM and the TGI (U251 CNS) was 36.6 µM. For the same molecule, the TGI (OVCAR-3 ovarian) was 30.3 µM, the TGI (BT-549 breast) was 38.2 µM and the TGI (SN12C renal) was 21.8 µM. The TGI (COLO 205 colon) was 24 µM, the TGI (A498 renal) was 37.6 µM and the TGI (CCRF-CEM leukemia) was 45.1 µM. The TGI (SNB-19 CNS) was over 100 µM, the TGI (CAKI-1 renal) was 26.8 µM and the TGI (UACC-257 melanoma) was 37.5 µM. The TGI (IGROV1 ovarian) was 42.6 µM, the TGI (SF-268 CNS) was 39 µM and the TGI (SW-620 colon) was 21 µM. For the same molecule, the TGI (DU-145 prostate) was 22.5 µM.

`CCCCCC1=C2C(c3ccc(OC)cc3)=C(N)C(c3ccc(OC)cc3)=C3NC(=O)C(C=C1)C32` (stereo not drawn) gave a TGI (NCI-H23 lung) of over 100 µM, a TGI (RPMI-8226 leukemia) of over 100 µM and a TGI (SK-MEL-5 melanoma) of over 100 µM. The TGI (HL-60(TB) leukemia) was over 100 µM, the TGI (NCI/ADR-RES ovarian) was over 100 µM and the TGI (SNB-75 CNS) was over 100 µM. It also gave a TGI (MALME-3M melanoma) of 53.7 µM, a TGI (EKVX NSCLC) of over 100 µM and a TGI (HOP-62 NSCLC) of over 100 µM. It also gave a TGI (OVCAR-5 ovarian) of over 100 µM, a TGI (UACC-62 melanoma) of over 100 µM and a TGI (T-47D breast) of over 100 µM. It also gave a TGI (HCT-15 colon) of over 100 µM, a TGI (M14 melanoma) of over 100 µM and a TGI (NCI-H226 lung) of 96.8 µM. For the same molecule, the TGI (NCI-H460 lung) was over 100 µM, the TGI (OVCAR-8 ovarian) was over 100 µM and the TGI (MDA-MB-435) was over 100 µM. For the same molecule, the TGI (MDA-MB-231 breast) was over 100 µM, the TGI (MDA-N) was over 100 µM and the TGI (SK-OV-3 ovarian) was over 100 µM. It also gave a TGI (UO-31 renal) of over 100 µM, a TGI (786-0 renal) of over 100 µM and a TGI (SK-MEL-2 melanoma) of over 100 µM. For the same molecule, the TGI (PC-3 prostate) was over 100 µM, the TGI (HCT-116 colon) was over 100 µM and the TGI (NCI-H522 lung) was 68 µM. It also gave a TGI (SK-MEL-28 melanoma) of over 100 µM, a TGI (ACHN renal) of over 100 µM and a TGI (TK-10 renal) of over 100 µM. It also gave a TGI (SF-295 CNS) of over 100 µM, a TGI (LOX IMVI melanoma) of over 100 µM and a TGI (KM12 colon) of over 100 µM. The TGI (MOLT-4 leukemia) was over 100 µM, the TGI (HT29 colon) was over 100 µM and the TGI (MCF7 breast) was over 100 µM. For the same molecule, the TGI (A549 NSCLC) was over 100 µM, the TGI (HCC-2998 colon) was over 100 µM and the TGI (RXF 393 renal) was 54.1 µM. It also gave a TGI (K-562 leukemia) of over 100 µM, a TGI (HOP-92 NSCLC) of 60.7 µM and a TGI (OVCAR-4 ovarian) of over 100 µM. It also gave a TGI (U251 CNS) of over 100 µM, a TGI (OVCAR-3 ovarian) of over 100 µM and a TGI (BT-549 breast) of over 100 µM. It also gave a TGI (SN12C renal) of over 100 µM, a TGI (COLO 205 colon) of over 100 µM and a TGI (A498 renal) of over 100 µM. The TGI (CCRF-CEM leukemia) was over 100 µM, the TGI (SNB-19 CNS) was over 100 µM and the TGI (CAKI-1 renal) was over 100 µM. The TGI (UACC-257 melanoma) was over 100 µM, the TGI (IGROV1 ovarian) was over 100 µM and the TGI (SF-268 CNS) was 38.9 µM. For the same molecule, the TGI (SW-620 colon) was over 100 µM and the TGI (DU-145 prostate) was over 100 µM.
